{"source": "patent US20160370379A1", "about": "“BLOOD-BASED BIOMARKER FOR CANCER” (J-PHARMA CO., LTD., priority 2014, published 2016)", "key": {"[1]": {"tested_on": "gastric cancer cell line 44As3-11", "test": "Amino acid concentration in culture medium of gastric cancer cell line with LAT1 inhibitor added", "format": "cell-based", "details": "44As3-11 culture, inhibitor added at each concentration, medium collected 0-97 hrs (FIG. 2b)", "procedure": "(§1) Each of the cancer cell lines 44As3-11 (gastric cancer cell line), T3M-4 (pancreas cancer cell line), and MIAPaCa-2 (pancreas cancer cell line) was used. By using a 6 well plate, culture was performed at 37° C. with 5×10^4 cells in 3 mL (10% FBS, L-Glu+PS in RPMI1640). The culture medium was collected at 0, 24, 48, 72, and 97 hrs and centrifuged at 1,000 rpm. The supernatant (1.0 mL) was then stored in a deep freezer (−80° C.) during a period until determination. Eight kinds of amino acids (including phenylalanine in addition to the aforementioned histidine, isoleucine, leucine, methionine, tryptophan, valine, and tyrosine) were measured by mass analysis. Each culture was performed in triplet and, by measuring the sample, the concentration of each amino acid was represented as mean value±standard deviation, and then compared among the groups. Furthermore, after adding an anticancer agent (O-(5-amino-2-phenylbenzoxazol-7-yl)methyl-3,5-dichloro-L-tyrosine) at each concentration to the culture medium, the property of inhibiting the decrease in amino acid concentration in the culture medium was observed.\n(§2) 3) As for the statistical processing, Mann-Whitney U test was used for comparison between two groups, and those having a risk ratio of 0.05 or less were determined to be a significant difference."}, "[2]": {"tested_on": "pancreas cancer cell line T3M-4", "test": "Amino acid concentration in culture medium of pancreas cancer cell line with LAT1 inhibitor added", "format": "cell-based", "details": "T3M-4 culture, inhibitor added at each concentration, medium collected 0-97 hrs (FIG. 3b)", "procedure": "as §1, §2"}, "[3]": {"target": "T1, LAT1 (Homo sapiens, UniProt Q01650)", "T1 construct": "from tissue; host or cells: Solid tumours (pancreas, colon, gall bladder cancer with metastases) in living patients", "T1 sequence (Q01650 whole entry)": "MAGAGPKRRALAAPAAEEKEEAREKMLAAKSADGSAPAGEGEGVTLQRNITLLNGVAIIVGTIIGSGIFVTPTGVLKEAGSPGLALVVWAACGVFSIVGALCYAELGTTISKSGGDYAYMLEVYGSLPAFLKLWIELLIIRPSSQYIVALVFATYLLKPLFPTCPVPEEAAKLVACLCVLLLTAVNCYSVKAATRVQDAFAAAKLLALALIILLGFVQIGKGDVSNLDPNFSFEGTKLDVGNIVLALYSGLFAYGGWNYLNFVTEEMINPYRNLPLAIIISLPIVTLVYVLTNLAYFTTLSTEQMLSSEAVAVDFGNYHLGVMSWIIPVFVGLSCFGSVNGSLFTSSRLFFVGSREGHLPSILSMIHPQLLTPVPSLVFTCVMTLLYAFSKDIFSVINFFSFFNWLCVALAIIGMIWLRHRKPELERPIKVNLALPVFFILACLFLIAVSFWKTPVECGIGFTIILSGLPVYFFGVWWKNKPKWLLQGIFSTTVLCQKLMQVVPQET", "T1 sequence (P08195 102-630 partner)": "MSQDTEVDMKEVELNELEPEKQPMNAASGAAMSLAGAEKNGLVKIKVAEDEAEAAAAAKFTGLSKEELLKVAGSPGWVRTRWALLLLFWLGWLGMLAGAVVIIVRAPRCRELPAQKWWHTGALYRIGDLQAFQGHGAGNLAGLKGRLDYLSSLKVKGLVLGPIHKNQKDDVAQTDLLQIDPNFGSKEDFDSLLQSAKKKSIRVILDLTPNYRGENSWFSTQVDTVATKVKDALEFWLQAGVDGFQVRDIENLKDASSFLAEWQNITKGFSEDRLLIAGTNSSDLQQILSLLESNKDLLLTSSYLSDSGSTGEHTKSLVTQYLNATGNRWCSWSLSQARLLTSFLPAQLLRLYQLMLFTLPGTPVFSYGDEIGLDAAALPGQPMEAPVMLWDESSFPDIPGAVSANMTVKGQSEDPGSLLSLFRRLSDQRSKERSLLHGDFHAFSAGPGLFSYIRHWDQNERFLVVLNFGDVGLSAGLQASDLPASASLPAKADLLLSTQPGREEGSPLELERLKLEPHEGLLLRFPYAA", "test": "Free amino acid concentration in blood serum of cancer patients at BSC stage administered inhibitor agent", "format": "in vivo", "procedure": "Immediately after collecting blood from patients having gastric cancer [100 samples, average age (lowest value-highest value) 66.1 (31 to 89 years old), sex ratio 72:28], pancreas cancer [27, 70.3 (56 to 81) 13:14], or bile duct cancer [6, 70.5 (68 to 75) 5:1] and healthy control with no cancer [12, 50.8 (29 to 73) 11:1], blood serum was isolated and stored in a deep freezer (−80° C.) during a period until determination. The concentration of seven types of amino acids (histidine, isoleucine, leucine, methionine, tryptophan, valine, and tyrosine) was measured by mass analysis, and the measurement result was compared to the value obtained from blood of a healthy control. The concentration of each amino acid was represented as relative value of each case, with the mean value from the healthy control being 100%. The percentage was compared between the cancer patient and healthy control.\nA predetermined clinical test (test and experiment) was registered with an administration bureau, and after obtaining an approval of the institutional review board (IRB) of a site management organization, patients were selected and blood serum for analysis was collected, stored, and analyzed. The patient as a subject carried solid tumors for which standard treatments for cancer are ineffective or are intolerable, and they were in a state generally referred to as a BSC stage. […]"}}, "data": [{"compound": "Nc1cc(COc2c(Cl)cc(C[C@H](N)C(=O)O)cc2Cl)c2oc(-c3ccccc3)nc2c1", "note": "[LAT1 inhibitor, O-(5-amino-2-phenylbenzoxazol-7-yl)methyl-3,5-dichloro-L-tyrosine]", "values": [{"measurement": "inhibition of the decrease in concentration of eight amino acids in the culture medium", "setting": "[1]", "value": "property of inhibiting amino acid decrease in a pharmaceutical concentration dependent manner was shown"}, {"measurement": "inhibition of the decrease in concentration of eight amino acids in the culture medium", "setting": "[2]", "value": "property of inhibiting amino acid decrease in a pharmaceutical concentration dependent manner was shown"}, {"measurement": "concentration of each amino acid in blood serum after single administration versus before administration", "setting": "[3]; patients at BSC stage, 12 mg/m^2/day, 25.5 hours after start of single administration (FIGS. 4a, 4b)", "value": "higher than the value before the administration"}, {"measurement": "relative blood concentration of eight amino acids before versus after single administration", "setting": "[3]; subjects 102 and 104, healthy control mean = 100, Student's t test (FIG. 4c)", "value": "significant difference between cases before and after the single administration"}]}]}
